Data taken from US20230278972A1, “SUBSTITUTED HALOALKYL SULFONANILIDE HERBICIDES” (FMC Corporation, priority 2020, published 2023).

Columns and labels:
Type in all cases: in vivo
[1] = system: Pigweed, Palmer (palmer amaranth, palmer pigweed, Amaranthus palmeri); test: Test A1 postemergence, Pigweed, Palmer; settings: for Plant response rating, Pigweed, Palmer: Postemergence
Outline: (§1)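 Plants were grown in a loam soil/sand blend, with test chemicals formulated in a non-phytotoxic solvent mixture containing surfactant. Preemergence treatment (corn) was a directed soil spray at planting. Postemergence treatment was applied to plants 2 to 10 cm tall at the one- to two-leaf stage.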

[2] = system: goosegrass (Eleusine indica); test: Test A1 preemergence, goosegrass
Outline: (§2)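 Plants grown in pots of loam/sand mix; preemergence = soil-directed spray on seeded pots, postemergence = spray at 1–2 leaves, height 2–10 cm; test chemicals formulated in non-phytotoxic solvent with surfactant.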

[3] = system: barnyardgrass (Echinochloa crus-galli); test: Test B1 flooded paddy test, barnyardgrass; settings: 250 g ai/ha, Flood, applied to paddy water, 2-leaf stage, visually evaluated after 10 to 14 days
Text: (§3) A dash (-) response means no test result.

[4] = system: Oat, Wild (wild oat, Avena fatua); test: Test A1 postemergence, Oat, Wild; settings: for Plant response rating, Oat, Wild: Postemergence
Outline: as §1

rice (Oryza sativa) = test: Test B1 flooded paddy test, rice; settings: 250 g ai/ha, Flood, applied to paddy water, 2-leaf stage, visually evaluated after 10 to 14 days
Text: as §3

kochia (Bassia scoparia) = test: Test A1 postemergence, kochia; settings: for Plant response rating, Kochia: Postemergence
Outline: (§4)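 Herbicidal response was scored on plants treated either preemergence, by directed spray onto soil of a loam–sand blend after sowing, or postemergence on potted plants at the one- to two-leaf stage, 2–10 cm high. Test chemicals were carried in a non-phytotoxic solvent mix with surfactant.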

[5] = system: Foxtail, Giant (giant foxtail, Setaria faberi); test: Test A1 preemergence, Foxtail, Giant
Outline: as §2

[6] = system: galium (catchweed bedstraw, Galium aparine); test: Test A1 postemergence, galium; settings: for Plant response rating, Galium: Postemergence
Outline: as §4

[7] = system: blackgrass (Alopecurus myosuroides); test: Test A1 preemergence, blackgrass
Outline: as §2

[8] = 31 g ai/ha, 0 to 100 scale (0 no effect, 100 complete control), 10 days
[9] = 31 g ai/ha, 0 to 100 scale (0 no effect, 100 complete control)
[10] = 125 g ai/ha, 0 to 100 scale, 0 no effect, 100 complete control
[11] = 31 g ai/ha, postemergence, 0 to 100 scale (0 no effect, 100 complete control)

SMILES	Plant response rating, Pigweed, Palmer [1, 8]	Plant response rating, Pigweed, Palmer ([1]; 125 g ai/ha, 0 to 100 scale)	Plant response rating, Goosegrass [2, 9]	Plant response rating, Goosegrass [2, 10]	Plant response rating, Barnyardgrass (0 to 100 scale, 0 is no effect, 100 is complete control) [3]	Plant response rating, Oat, Wild [4, 8]	Plant response rating, Oat, Wild ([4]; 125 g ai/ha, 0 to 100 scale)	Plant response rating, Rice (0 to 100 scale, 0 is no effect, 100 is complete control) (rice (Oryza sativa))	Plant response rating, Kochia (kochia (Bassia scoparia); [8])	Plant response rating, Kochia (kochia (Bassia scoparia); 125 g ai/ha, 0 to 100 scale)	Plant response rating, Foxtail, Giant [5, 9]	Plant response rating, Foxtail, Giant [5, 10]	Plant response rating, Galium [6, 8]	Plant response rating, Galium ([6]; 125 g ai/ha, 0 to 100 scale)	Plant response rating, Blackgrass [7, 9]	Plant response rating, Blackgrass [7, 10]	Pigweed, Palmer plant response rating [1, 11]	Oat, Wild plant response rating [4, 11]	Kochia plant response rating (kochia (Bassia scoparia); [11])	Galium plant response rating [6, 11]
COC(=O)OCN(c1cc(C2=NOC3CCCC23)c(C)cc1C)S(=O)(=O)C(F)(F)F (stereo not drawn) [Compound 315]	30	50	90	100	98	0	20	35	50	80	70	90	70	90	20	60	–	–	–	–
Cc1cc(C)c(N(COC(=O)C(C)(C)C)S(=O)(=O)C(F)(F)F)cc1C(=O)N1CCC(C)CC1 [Compound 353]	0	30	20	70	90	0	10	20	10	50	10	80	50	70	0	0	–	–	–	–
CCC1CC(c2cc(NS(=O)(=O)C(F)(F)F)c(C)cc2C)=NO1 (stereo not drawn) [Compound 375]	–	20	70	100	50	–	0	15	–	60	10	90	–	20	20	50	0	0	0	10
Cc1cc(C)c(N(COC(=O)C(C)(C)C)S(=O)(=O)C(F)(F)F)cc1C1=NOC2CCCCCC12 (single isomer, unassigned) [Compound 294]	10	30	0	90	95	10	20	0	0	20	0	20	60	70	10	0	–	–	–	–
Cc1c(C(=O)N2CCC(F)CC2)cc(N(COC(=O)C(C)(C)C)S(=O)(=O)C(F)(F)F)c(C)c1C [Compound 361]	10	20	10	100	95	0	20	35	0	50	0	90	80	90	0	0	–	–	–	–
Cc1c(NS(=O)(=O)C(F)(F)F)cc(C(=O)N2CCOCC2)c(C)c1C [Compound 289, 1,1,1-Trifluoro-N-[2,3,4-trimethyl-5-(4-morpholinylcarbonyl)phenyl]methanesulfonamide]	10	60	80	90	85	–	20	10	20	60	30	100	60	80	0	60	–	–	–	–
CCC1ON=C(c2cc(N(COC(=O)C(C)(C)C)S(=O)(=O)C(F)(F)F)c(C)cc2C)C1CC (stereo not drawn) [Compound 344]	20	50	20	90	95	20	30	40	20	60	30	100	70	100	0	30	–	–	–	–
COCC1CC(c2cc(N(COC(=O)C(C)(C)C)S(=O)(=O)C(F)(F)F)c(C)cc2C)=NO1 (stereo not drawn) [Compound 338]	0	30	40	100	95	0	10	20	10	60	10	90	50	50	0	0	–	–	–	–
CCCCOC1CC(c2cc(NS(=O)(=O)C(F)(F)F)c(C)cc2C)=NO1 (stereo not drawn) [Compound 323]	20	60	50	90	0	0	0	0	50	60	50	90	50	80	0	30	–	–	–	–
Cc1cc(C)c(N(C(=O)OCC(C)C)S(=O)(=O)C(F)(F)F)cc1C1=NOC2CCCC12 (stereo not drawn) [Compound 299]	10	10	60	90	95	0	0	0	0	20	0	40	40	60	0	30	–	–	–	–
Cc1cc(C2CC2)c(C2=NOC3CCCC23)cc1N(COC(=O)C(C)(C)C)S(=O)(=O)C(F)(F)F (stereo not drawn) [Compound 355]	0	30	20	90	60	0	10	10	0	50	0	60	40	60	0	0	–	–	–	–
Cc1cc(C)c(N(S(=O)(=O)C(F)(F)F)S(=O)(=O)C(F)(F)F)cc1C1=NOC2COCC12 (stereo not drawn) [Compound 296]	0	20	40	90	30	0	10	0	20	40	30	100	50	80	10	60	–	–	–	–
CCOC(=O)N(c1cc(C(=O)N2CCOCC2)c(C)cc1C)S(=O)(=O)C(F)(F)F [Compound 363]	0	10	100	100	50	20	50	25	50	70	90	100	60	90	50	90	–	–	–	–
